In the assay the test system is P388 leukemia ip, CD2F1 mice, survival T/C. The assay is described as follows: NCI In Vivo Anticancer Drug Screen. Data for tumor model P388 Leukemia (intraperitoneal) in CD2F1 (CDF1) mice. To be noted: endpoint: median survival time, higher = longer survival. In outline:
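Mice carrying the transplanted tumor received test compound or vehicle. Survival was recorded in each group, and the value is the treated-group measurement divided by that of the vehicle-treated control group.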

[1] abbreviates: dose: 50.0 mg/kg/injection, schedule: Q01DX005 (ip), vehicle: saline with Tween-80.
[2] abbreviates: dose: 100.0 mg/kg/injection, schedule: Q01DX005 (ip), vehicle: saline with Tween-80.
[3] abbreviates: dose: 200.0 mg/kg/injection, schedule: Q01DX005 (ip), vehicle: saline with Tween-80.
The mark [4] stands for this setting: dose: 25.0 mg/kg/injection, schedule: Q01DX009 (ip), vehicle: saline with Tween-80.
Setting [5] is: dose: 50.0 mg/kg/injection, schedule: Q01DX009 (ip), vehicle: saline with Tween-80.
Setting [6] is: dose: 100.0 mg/kg/injection, schedule: Q01DX009 (ip), vehicle: saline with Tween-80.
Setting [7] is: dose: 200.0 mg/kg/injection, schedule: Q01DX009 (ip), vehicle: saline with Tween-80.
[8] abbreviates: dose: 60.0 mg/kg/injection, schedule: Q01DX005 (ip), vehicle: saline.
The mark [9] stands for this setting: dose: 120.0 mg/kg/injection, schedule: Q01DX005 (ip), vehicle: saline.
[10] abbreviates: dose: 240.0 mg/kg/injection, schedule: Q01DX005 (ip), vehicle: saline.
Where [11] appears, read: dose: 25.0 mg/kg/injection, schedule: Q01DX009 (ip), vehicle: Klucel (hydroxypropylcellulose) (HPC).
[12] abbreviates: dose: 50.0 mg/kg/injection, schedule: Q01DX009 (ip), vehicle: Klucel (hydroxypropylcellulose) (HPC).
[13] abbreviates: dose: 100.0 mg/kg/injection, schedule: Q01DX009 (ip), vehicle: Klucel (hydroxypropylcellulose) (HPC).
Where [14] appears, read: dose: 200.0 mg/kg/injection, schedule: Q01DX009 (ip), vehicle: Klucel (hydroxypropylcellulose) (HPC).
[15] abbreviates: dose: 60.0 mg/kg/injection, schedule: Q01DX005 (ip), vehicle: saline with Tween-80.
Where [16] appears, read: dose: 120.0 mg/kg/injection, schedule: Q01DX005 (ip), vehicle: saline with Tween-80.
[17] abbreviates: dose: 240.0 mg/kg/injection, schedule: Q01DX005 (ip), vehicle: saline with Tween-80.
The mark [18] stands for this setting: dose: 50.0 mg/kg/injection, schedule: Q01DX009 (ip), vehicle: saline.
Setting [19] is: dose: 100.0 mg/kg/injection, schedule: Q01DX009 (ip), vehicle: saline.
[20] abbreviates: dose: 200.0 mg/kg/injection, schedule: Q01DX009 (ip), vehicle: saline.
Setting [21] is: dose: 100.0 mg/kg/injection, schedule: Q04DX003 (ip), vehicle: saline with Tween-80.
Where [22] appears, read: dose: 200.0 mg/kg/injection, schedule: Q04DX003 (ip), vehicle: saline with Tween-80.

Among the data in PubChem BioAssay AID330 (DTP/NCI, 2004) are T/C values, retold here.

Structures are written as SMILES. “And” between values parts separate entries of the source, which are not always exact repeats. Equal values may be shown once. Toxic doses and inconclusive results are not listed.

Take `COC(=O)c1cc(O)c2c(c1C(=O)OC)C[C@H]1[C@@H]3CC=C4C[C@@H](O)CC[C@]4(C)[C@H]3CC[C@]21C`: the T/C under setting [1] was 97 % of control, the T/C under setting [2] is 87 % of control and the T/C under setting [3] is 87 % of control.

In the case of `CC1N/C(=C/c2ccccc2)C(=O)O1` (stereo unspecified), the T/C by setting is: under setting [4], 106 % of control; under setting [5], 110 % of control; under setting [6], 105 % of control and 123 % of control; under setting [7], 117 % of control and 96 % of control.

Take `C=CC1O[C@H](C)C[C@H](C)O1` (stereo partly specified): the T/C under setting [8] is 109 % of control, the T/C under setting [9] is 100 % of control and the T/C under setting [10] was 104 % of control.

Regarding `CCCCCCCCCCCCN1CCS(=O)(=O)CC1`, the T/C was 112 % of control under setting [11], 95 % of control under setting [12], 118 % of control under setting [13] and 101 % of control under setting [14].

For the compound `O=C1CCCCCOCCOCCOCCOCCOCCCCC1`, the T/C under setting [1] is 104 % of control, the T/C under setting [2] was 96 % of control and the T/C under setting [3] is 101 % of control.

Consider `CCCCS(=O)CCC(N)C(=O)O` (stereo unspecified), for which the T/C is 98 % of control under setting [15], 94 % of control under setting [16] and 93 % of control under setting [17].

As to `Cc1cccc(C(=O)C(CN(C)C)CN(C)C)c1`, the T/C (dose: 12.5 mg/kg/injection, schedule: Q01DX005 (ip), vehicle: saline) is 112 % of control and the T/C (dose: 25.0 mg/kg/injection, schedule: Q01DX005 (ip), vehicle: saline) was 114 % of control.

Turning to `Cc1cc(Cl)cnc1N`, the T/C by setting is: under setting [18], 99 % of control; under setting [19], 97 % of control; under setting [20], 92 % of control.

As for `CCc1cc2c(cc1-c1csc(C/C(N)=N/O)n1)C(C)(C)CCC2(C)C`, the T/C runs as follows: under setting [18], 104 % of control; under setting [19], 103 % of control; under setting [20], 100 % of control.

With `COCC1CCCN1` (stereo unspecified), the T/C is 104 % of control (dose: 100.0 mg/kg/injection, schedule: Q04DX002 (ip), vehicle: saline) and 110 % of control (dose: 200.0 mg/kg/injection, schedule: Q04DX002 (ip), vehicle: saline).

Consider `CC1(CCl)Nc2ccccc2C(=O)N1c1ccc(Cl)cc1` (stereo unspecified), for which the T/C runs as follows: under setting [5], 94 % of control; under setting [6], 95 % of control; under setting [7], 89 % of control.

Take `O=C(CCN1CCCCC1)Nc1ccc(F)c(Cl)c1`: the T/C runs as follows: under setting [1], 93 % of control; under setting [2], 102 % of control; under setting [3], 93 % of control.

In the case of `Clc1c2ccccc2nc2ccccc12`, the T/C reads like this: under setting [1], 98 % of control; under setting [2], 91 % of control; under setting [3], 98 % of control.

Regarding `CC(C)(C)C1=CP(=O)(c2ccccc2)C=C(C(C)(C)C)N1`, the T/C by setting is: under setting [1], 106 % of control; under setting [2], 108 % of control; under setting [3], 98 % of control.

`Cc1cc(=O)c2c(=O)[nH][nH]c2[nH]1`: the T/C was 100 % of control (dose: 50.0 mg/kg/injection, schedule: Q04DX003 (ip), vehicle: saline with Tween-80); 90 % of control under setting [21]; 90 % of control under setting [22].

As for `COC1/C=C\OC2(C)Oc3c(C)c(O)c4c(O)c(c5c(c4c3C2=O)NC2(CCN(Cc3ccccc3)CC2)N=5)=NC(=O)/C(C)=C\C=C\C(C)C(O)C(C)C(O)C(C)C(OC(C)=O)C1C` (stereo unspecified), the T/C is 102 % of control under setting [11], 107 % of control under setting [12], 111 % of control under setting [13] and 103 % of control under setting [14].

Regarding `CC(C)c1c(C[N+](C)([O-])C(C)Cc2ccccc2)n(C)n(-c2ccccc2)c1=O` (stereo unspecified), the T/C under setting [15] was 106 % of control, the T/C under setting [16] is 102 % of control and the T/C under setting [17] is 100 % of control.

As to `COc1ccc(C2OC(=O)CN2C(=O)c2ccccc2)cc1` (stereo unspecified), the T/C reads like this: under setting [1], 107 % of control; under setting [2], 95 % of control; under setting [3], 90 % of control.

In the case of `COC(=O)/C=C(/C(=O)OC)N(O)C(=O)CN1C(=O)c2ccccc2C1=O`, the T/C is, setting by setting: under setting [15], 102 % of control; under setting [16], 100 % of control; under setting [17], 101 % of control.

On to `Nc1ncnc2c1c1c(=S)nc[nH]c1n2C1OC(CO)C(O)C1O` (stereo unspecified), for which the T/C runs as follows: (dose: 25.0 mg/kg/injection, schedule: Q01DX009 (ip), vehicle: water) 158 % of control; (dose: 50.0 mg/kg/injection, schedule: Q01DX009 (ip), vehicle: water) 165 % of control; (dose: 100.0 mg/kg/injection, schedule: Q01DX009 (ip), vehicle: water) 177 % of control.

With `Cc1ccc(S(=O)(=O)OCCOc2ccc(-c3nc4ccccc4[nH]3)cc2)cc1`, the T/C is, setting by setting: (dose: 100.0 mg/kg/injection, schedule: Q01DX001 (ip), vehicle: saline with Tween-80) 92 % of control; (dose: 200.0 mg/kg/injection, schedule: Q01DX001 (ip), vehicle: saline with Tween-80) 90 % of control; (dose: 400.0 mg/kg/injection, schedule: Q01DX001 (ip), vehicle: saline with Tween-80) 101 % of control.

As for `COc1ccc2c(c1)C(=O)[C@]1(C)C3(C)OC(=O)C(c4ccccc43)[C@]21C` (stereo partly specified), the T/C reads like this: under setting [15], 110 % of control; under setting [16], 105 % of control; under setting [17], 98 % of control.

In the case of `COC1SCCn2c1nc1ccccc1c2=O` (stereo unspecified), the T/C under setting [15] was 107 % of control, the T/C under setting [16] is 98 % of control and the T/C under setting [17] is 99 % of control.

For `O=C(O)c1cccc2cccc(-c3c4ccc(=O)c(O)c-4oc4c(O)c(O)ccc34)c12`, the T/C was 109 % of control under setting [6] and 113 % of control under setting [7].

Turning to `CC(=O)[C@H]1CC[C@H]2[C@@H]3CCC4=CC(=O)[C@H](C)C[C@]4(C)[C@H]3C(=O)C[C@]12C`, the T/C runs as follows: under setting [21], 100 % of control; under setting [22], 95 % of control; (dose: 400.0 mg/kg/injection, schedule: Q04DX003 (ip), vehicle: saline with Tween-80) 95 % of control.

Regarding `Cc1cc(C)c(O)c(C(c2ccccc2)c2cc(C)cc(C)c2O)c1`, the T/C is 99 % of control under setting [5], 118 % of control under setting [6] and 115 % of control under setting [7].

As for `COc1cc2c(cc1OC)CC[N+](CCC[N+](C)(C)C)=C2`, the T/C is, setting by setting: (dose: 12.5 mg/kg/injection, schedule: Q01DX009 (ip), vehicle: saline) 104 % of control; (dose: 25.0 mg/kg/injection, schedule: Q01DX009 (ip), vehicle: saline) 95 % of control; under setting [18], 97 % of control; under setting [19], 89 % of control.

Regarding `COCCC1OCC(CCl)O1` (stereo unspecified), the T/C reads like this: under setting [1], 104 % of control; under setting [2], 99 % of control; under setting [3], 108 % of control.

For `COC(=O)C(C(=O)OC)=S1C(Cl)=CC=C1Cl`, the T/C is 108 % of control (dose: 100.0 mg/kg/injection, schedule: Q04DX003 (ip), vehicle: saline); 104 % of control (dose: 200.0 mg/kg/injection, schedule: Q04DX003 (ip), vehicle: saline); 106 % of control (dose: 400.0 mg/kg/injection, schedule: Q04DX003 (ip), vehicle: saline).

Consider `CCOC(=O)SC(=S)OCC`, for which the T/C (dose: 6.25 mg/kg/injection, schedule: Q01DX009 (ip), vehicle: saline with Tween-80) is 108 % of control; the T/C (dose: 12.5 mg/kg/injection, schedule: Q01DX009 (ip), vehicle: saline with Tween-80) was 114 % of control; the T/C under setting [4] was 100 % of control; the T/C under setting [5] was 87 % of control.

`N#CC(C#N)=Cc1ccc(N2CCOCC2)cc1`: the T/C was 90 % of control under setting [18], 97 % of control under setting [19] and 90 % of control under setting [20].

In the case of `Cc1ccc(S(=O)(=O)N(N)CCC#N)cc1`, the T/C is 94 % of control (dose: 50.0 mg/kg/injection, schedule: Q01DX005 (ip), vehicle: Klucel (hydroxypropylcellulose) (HPC)); 97 % of control (dose: 100.0 mg/kg/injection, schedule: Q01DX005 (ip), vehicle: Klucel (hydroxypropylcellulose) (HPC)); 96 % of control (dose: 200.0 mg/kg/injection, schedule: Q01DX005 (ip), vehicle: Klucel (hydroxypropylcellulose) (HPC)).

In the case of `CN(CCO)CC(O)Cn1cnc2c(N)ncnc21` (stereo unspecified), the T/C under setting [8] is 95 % of control, the T/C under setting [9] was 97 % of control and the T/C under setting [10] is 100 % of control.
